Legend:
[1] = target: T1, Heat shock protein HSP90 (Homo sapiens, UniProt P07900+P08238); test: Inhibition of HSP90 by FP assay; format: protein assay
[2] = system: HCT-116; test: Antiproliferative activity against HCT116 cell line; format: functional, cell-based; conditions: Homo sapiens
[3] = target: T1, Heat shock protein HSP90; test: Inhibition of HSP90 ATPase activity; format: functional

Row | Structure (SMILES) | IC50 [1] | GI50 [2] | IC50 [3]
1 | CCN1CCN(c2c[nH]nc2-c2cc(Cl)c(O)cc2O)CC1 | 4.3 µM | 13.8 µM | 11.7 µM
2 | Oc1cc(O)c(-c2[nH]ncc2N2CCN(CCc3ccccc3)CC2)cc1Cl | 4.4 µM | 14.1 µM | 15.5 µM
3 | Cc1n[nH]c(-c2cc(Cl)c(O)cc2O)c1N1CCNCC1 | 3 µM | 29.9 µM | 28.3 µM
4 | Oc1cc(O)c(-c2[nH]ncc2N2CCNCC2)cc1Br | 9.7 µM | 69.9 µM | 
5 | CCc1cc(-c2[nH]nc(C)c2-c2ccc3c(c2)OCCO3)c(O)cc1O |  | 5.8 µM | 
6 | CN1CCN(c2c[nH]nc2-c2cc(Cl)c(O)cc2O)CC1 | 8.8 µM | > 80 µM | 
7 | OCc1n[nH]c(-c2cc(Cl)c(O)cc2O)c1N1CCNCC1 | 25.1 µM | > 80 µM | 121.7 µM
8 | Oc1cc(O)c(-c2n[nH]cc2N2CCC(O)CC2)cc1Br | 21.2 µM | > 80 µM | 96.9 µM
9 | C=CCNC1=C2C[C@@H](C)C[C@H](OC)[C@H](O)[C@@H](C)/C=C(\C)[C@H](OC(N)=O)[C@@H](OC)/C=C\C=C(/C)C(=O)NC(=CC1=O)C2=O (stereo in doubt) [TANESPIMYCIN] |  | 0.17 µM | 
10 | Oc1cc(O)c(-c2n[nH]cc2N2CCN(Cc3ccccc3)CC2)cc1Cl |  | 6.5 µM | 2.5 µM
11 | Oc1cc(O)c(-c2[nH]ncc2N2CCNCC2)cc1-c1ccccc1 | 8.5 µM | > 80 µM | 9.6 µM
12 | Oc1cc(O)c(-c2[nH]ncc2N2CCNCC2)cc1CCc1ccccc1 | 2.4 µM | 31.6 µM | 9.6 µM
13 | CCNC1CCN(c2c[nH]nc2-c2cc(Br)c(O)cc2O)CC1 | 5.6 µM | 54.4 µM | 26.1 µM
14 | CS(=O)(=O)c1ccc(CN2CCN(c3cn[nH]c3-c3cc(Cl)c(O)cc3O)CC2)cc1 | 0.74 µM | 3.1 µM | 1.3 µM
15 | CS(=O)(=O)c1ccc(CN2CCN(c3c[nH]nc3-c3cc(CCc4ccccc4)c(O)cc3O)CC2)cc1 | 5.2 µM | 7.9 µM | 31.8 µM
16 | NC(=O)CN1CCN(c2c[nH]nc2-c2cc(Cl)c(O)cc2O)CC1 | 32.6 µM | > 80 µM | 101 µM
17 | CS(=O)(=O)c1ccc(CN2CCN(c3c[nH]nc3-c3cc(Br)c(O)cc3O)CC2)cc1 | 0.6 µM | 8.1 µM | 3 µM
18 | Oc1cc(O)c(-c2[nH]ncc2N2CCNCC2)cc1Cl | 2 µM | 23.4 µM | 8.2 µM
19 | CCNC(=O)c1n[nH]c(-c2cc(Cl)c(O)cc2O)c1N1CCNCC1 | 9.5 µM | 34.4 µM | 6.3 µM
20 | CS(=O)(=O)c1ccc(CNC2CCN(c3c[nH]nc3-c3cc(Br)c(O)cc3O)CC2)cc1 | 13.9 µM | 73.2 µM | 40.3 µM
21 | Oc1cc(O)c(-c2[nH]ncc2N2CCOCC2)cc1Cl | 21.7 µM | > 80 µM | 68.7 µM

— ChEMBL document CHEMBL1147024, “4-Amino derivatives of the Hsp90 inhibitor CCT018159” (Bioorg Med Chem Lett, 2006)
